ChEMBL document CHEMBL1201862, “PubChem BioAssay data set” (2004)
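Cultured in 96-well plates, cells were exposed to test compound for 48 hours across five concentrations. GI50 marks 50% less growth.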 The source made the active and inactive calls. Cut-off read from the data, not from the text of the source: active = GI50 up to about 1.1 µM and inactive = higher.

Assays:
Experiment in all cases: NCI-60 cell line screen, 48 h
PC-3 = system: PC-3
SR = system: SR
K562 = system: K562
OVCAR-8 = system: OVCAR-8
HOP-92 = system: HOP-92
MDA-MB-435 = system: MDA-MB-435
Hs-578T = system: Hs-578T
CCRF-CEM = system: CCRF-CEM
786-0 = system: 786-0
SK-MEL-5 = system: SK-MEL-5
SNB-19 = system: SNB-19
UACC-62 = system: UACC-62
IGROV-1 = system: IGROV-1
SF-539 = system: SF-539
UO-31 = system: UO-31
NCI-H23 = system: NCI-H23
HCT-15 = system: HCT-15
DU-145 = system: DU-145
MDA-MB-231 = system: MDA-MB-231
A498 = system: A498
MCF7 = system: MCF7
OVCAR-3 = system: OVCAR-3
HOP-62 = system: HOP-62
M14 = system: M14
SN12C = system: SN12C
OVCAR-4 = system: OVCAR-4
LOX IMVI = system: LOX IMVI
ACHN = system: ACHN
CAKI-1 = system: CAKI-1
MOLT-4 = system: MOLT-4
UACC-257 = system: UACC-257
SF-295 = system: SF-295
SNB-75 = system: SNB-75
RPMI-8226 = system: RPMI-8226
OVCAR-5 = system: OVCAR-5
TK-10 = system: TK-10
SF-268 = system: SF-268
Malme-3M = system: Malme-3M
HCC 2998 = system: HCC 2998
COLO 205 = system: COLO 205
BT-549 = system: BT-549
EKVX = system: EKVX
SK-OV-3 = system: SK-OV-3
A549 = system: A549
RXF 393 = system: RXF 393
SK-MEL-2 = system: SK-MEL-2
NCI/ADR-RES = system: NCI/ADR-RES
KM12 = system: KM12
NCI-H460 = system: NCI-H460
HCT-116 = system: HCT-116
NCI-H226 = system: NCI-H226
SW-620 = system: SW-620
SK-MEL-28 = system: SK-MEL-28
U-251 = system: U-251
NCI-H522 = system: NCI-H522
HL-60 = system: HL-60
HT-29 = system: HT-29

For `O=C1NC(c2cccc3ccccc23)Nc2ccccc21` (centres undefined), the GI50 (PC-3) was 0.0423 µM (active), the GI50 (SR) was < 0.0153 µM (active) and the GI50 (K562) was < 0.0212 µM (active). For the same compound, the GI50 (OVCAR-8) was 0.105 µM (active), the GI50 (HOP-92) was 0.172 µM (active) and the GI50 (MDA-MB-435) was 0.0153 µM (active). The GI50 (Hs-578T) was 0.0147 µM (active), the GI50 (CCRF-CEM) was 0.01 µM (active) and the GI50 (786-0) was 0.0593 µM (active). For the same compound, the GI50 (SK-MEL-5) was < 0.0202 µM (active), the GI50 (SNB-19) was 0.0399 µM (active) and the GI50 (UACC-62) was < 0.0184 µM (active). The GI50 (IGROV-1) was 0.0457 µM (active), the GI50 (SF-539) was 0.0363 µM (active) and the GI50 (UO-31) was 1.05 µM (active). The GI50 (NCI-H23) was 0.0931 µM (active), the GI50 (HCT-15) was < 0.0224 µM and the GI50 (DU-145) was 0.064 µM (active). For the same compound, the GI50 (MDA-MB-231) was 0.0873 µM (active), the GI50 (A498) was 0.0262 µM (active) and the GI50 (MCF7) was < 0.0171 µM (active). The GI50 (OVCAR-3) was 0.015 µM (active), the GI50 (HOP-62) was 0.139 µM (active) and the GI50 (M14) was 0.0298 µM (active). The GI50 (SN12C) was 0.132 µM (active), the GI50 (OVCAR-4) was 0.00931 µM (active) and the GI50 (LOX IMVI) was 0.0906 µM (active). The GI50 (ACHN) was 0.0708 µM (active), the GI50 (CAKI-1) was < 0.0409 µM (active) and the GI50 (MOLT-4) was 0.0528 µM (active). The GI50 (UACC-257) was 0.0465 µM (active), the GI50 (SF-295) was < 0.0202 µM (active) and the GI50 (SNB-75) was 0.0111 µM (active). The GI50 (RPMI-8226) was 0.0257 µM (active), the GI50 (OVCAR-5) was 0.133 µM (active) and the GI50 (TK-10) was 0.157 µM (active). The GI50 (SF-268) was 0.832 µM (active), the GI50 (Malme-3M) was 0.0463 µM (active) and the GI50 (HCC 2998) was 0.0736 µM (active). For the same compound, the GI50 (COLO 205) was 0.0458 µM (active), the GI50 (BT-549) was 0.454 µM (active) and the GI50 (EKVX) was 0.143 µM (active). The GI50 (SK-OV-3) was 0.0362 µM (active), the GI50 (A549) was 0.0968 µM (active) and the GI50 (RXF 393) was 0.0302 µM (active). For the same compound, the GI50 (SK-MEL-2) was 0.04 µM (active), the GI50 (NCI/ADR-RES) was < 0.0199 µM (active) and the GI50 (KM12) was 0.0399 µM (active). The GI50 (NCI-H460) was 0.0506 µM (active), the GI50 (HCT-116) was 0.0336 µM (active) and the GI50 (NCI-H226) was 0.0875 µM (active). For the same compound, the GI50 (SW-620) was 0.0277 µM (active), the GI50 (SK-MEL-28) was 0.127 µM (active) and the GI50 (U-251) was 0.0336 µM (active).

`Clc1ccc(CCn2ccc3ccccc32)c(Cl)c1` was tested, and the GI50 (PC-3) was > 100 µM (inactive), the GI50 (SR) was > 100 µM (inactive) and the GI50 (K562) was > 100 µM (inactive). For the same compound, the GI50 (OVCAR-8) was > 100 µM (inactive), the GI50 (HOP-92) was > 100 µM (inactive) and the GI50 (MDA-MB-435) was > 100 µM (inactive). The GI50 (Hs-578T) was > 100 µM (inactive), the GI50 (CCRF-CEM) was > 100 µM (inactive) and the GI50 (786-0) was > 100 µM (inactive). For the same compound, the GI50 (SK-MEL-5) was > 100 µM (inactive), the GI50 (SNB-19) was > 100 µM (inactive) and the GI50 (NCI-H522) was > 100 µM (inactive). For the same compound, the GI50 (UACC-62) was > 100 µM (inactive), the GI50 (IGROV-1) was > 100 µM (inactive) and the GI50 (SF-539) was > 100 µM (inactive). The GI50 (UO-31) was > 100 µM (inactive), the GI50 (NCI-H23) was > 100 µM (inactive) and the GI50 (HCT-15) was > 100 µM. For the same compound, the GI50 (DU-145) was > 100 µM (inactive), the GI50 (MDA-MB-231) was > 100 µM (inactive) and the GI50 (A498) was > 100 µM (inactive). For the same compound, the GI50 (MCF7) was > 100 µM (inactive), the GI50 (HL-60) was > 100 µM (inactive) and the GI50 (OVCAR-3) was > 100 µM (inactive). For the same compound, the GI50 (HOP-62) was > 100 µM (inactive), the GI50 (M14) was > 100 µM (inactive) and the GI50 (SN12C) was > 100 µM (inactive). For the same compound, the GI50 (OVCAR-4) was > 100 µM (inactive), the GI50 (ACHN) was > 100 µM (inactive) and the GI50 (HT-29) was > 100 µM (inactive). The GI50 (CAKI-1) was > 100 µM (inactive), the GI50 (MOLT-4) was > 100 µM (inactive) and the GI50 (UACC-257) was > 100 µM (inactive). The GI50 (SF-295) was > 100 µM (inactive), the GI50 (SNB-75) was > 100 µM (inactive) and the GI50 (RPMI-8226) was > 100 µM (inactive). The GI50 (OVCAR-5) was > 100 µM (inactive), the GI50 (TK-10) was > 100 µM (inactive) and the GI50 (SF-268) was > 100 µM (inactive). For the same compound, the GI50 (Malme-3M) was > 100 µM (inactive), the GI50 (HCC 2998) was > 100 µM (inactive) and the GI50 (COLO 205) was > 100 µM (inactive). The GI50 (BT-549) was > 100 µM (inactive), the GI50 (EKVX) was > 100 µM (inactive) and the GI50 (SK-OV-3) was > 100 µM (inactive). For the same compound, the GI50 (A549) was > 100 µM (inactive), the GI50 (RXF 393) was > 100 µM (inactive) and the GI50 (SK-MEL-2) was > 100 µM (inactive). For the same compound, the GI50 (NCI/ADR-RES) was > 100 µM (inactive), the GI50 (KM12) was > 100 µM (inactive) and the GI50 (NCI-H460) was > 100 µM (inactive). The GI50 (HCT-116) was > 100 µM (inactive), the GI50 (NCI-H226) was > 100 µM (inactive) and the GI50 (SW-620) was > 100 µM (inactive). For the same compound, the GI50 (U-251) was > 100 µM (inactive).
